# Measurements as given in PubChem BioAssay (NCI).
#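 Tested at 5 concentrations; 48 h exposure; 96-well plates; endpoints linearly interpolated, else capped at highest concentration. GI50: concentration for 50% inhibition of growth. TGI denotes the concentration required for complete inhibition of growth.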
# How the values were obtained:
# Assay in all cases: NCI-60 cell line screen, 48 h
# K-562 leukemia = tested on: K-562 leukemia
# DLD-1 colon = tested on: DLD-1 colon
# UACC-62 melanoma = tested on: UACC-62 melanoma
# SNB-19 CNS = tested on: SNB-19 CNS
# DMS 114 small cell lung = tested on: DMS 114 small cell lung
# IGROV1 ovarian = tested on: IGROV1 ovarian
# A549 NSCLC = tested on: A549 NSCLC
# NCI-H522 lung = tested on: NCI-H522 lung
# OVCAR-4 ovarian = tested on: OVCAR-4 ovarian
# MOLT-4 leukemia = tested on: MOLT-4 leukemia
# SK-MEL-28 melanoma = tested on: SK-MEL-28 melanoma
# OVCAR-8 ovarian = tested on: OVCAR-8 ovarian
# CCRF-CEM leukemia = tested on: CCRF-CEM leukemia
# KM12 colon = tested on: KM12 colon
# HCT-116 colon = tested on: HCT-116 colon
# RPMI-8226 leukemia = tested on: RPMI-8226 leukemia
# SN12C renal = tested on: SN12C renal
# TK-10 renal = tested on: TK-10 renal
# OVCAR-5 ovarian = tested on: OVCAR-5 ovarian
# U251 CNS = tested on: U251 CNS
# NCI-H23 lung = tested on: NCI-H23 lung
# SK-MEL-2 melanoma = tested on: SK-MEL-2 melanoma
# SNB-78 CNS = tested on: SNB-78 CNS
# OVCAR-3 ovarian = tested on: OVCAR-3 ovarian
# M19-MEL melanoma = tested on: M19-MEL melanoma
# UACC-257 melanoma = tested on: UACC-257 melanoma
# 786-0 renal = tested on: 786-0 renal
# ACHN renal = tested on: ACHN renal
# SK-MEL-5 melanoma = tested on: SK-MEL-5 melanoma
# SF-539 CNS = tested on: SF-539 CNS
# HOP-92 NSCLC = tested on: HOP-92 NSCLC
# MALME-3M melanoma = tested on: MALME-3M melanoma
# LOX IMVI melanoma = tested on: LOX IMVI melanoma
# LXFL 529 NSCLC = tested on: LXFL 529 NSCLC
# SK-OV-3 ovarian = tested on: SK-OV-3 ovarian
# EKVX NSCLC = tested on: EKVX NSCLC
# KM20L2 colon = tested on: KM20L2 colon
# HL-60(TB) leukemia = tested on: HL-60(TB) leukemia
# NCI-H460 lung = tested on: NCI-H460 lung
# UO-31 renal = tested on: UO-31 renal
# HT29 colon = tested on: HT29 colon
# SF-295 CNS = tested on: SF-295 CNS
# A498 renal = tested on: A498 renal
# HOP-62 NSCLC = tested on: HOP-62 NSCLC
# M14 melanoma = tested on: M14 melanoma
# SW-620 colon = tested on: SW-620 colon
# HCT-15 colon = tested on: HCT-15 colon
# SF-268 CNS = tested on: SF-268 CNS
# HCC-2998 colon = tested on: HCC-2998 colon
# SNB-75 CNS = tested on: SNB-75 CNS
# COLO 205 colon = tested on: COLO 205 colon
# RXF 393 renal = tested on: RXF 393 renal
# SR leukemia = tested on: SR leukemia
compound,measurement,setting,value
NCCN.O=C([O-])C(=O)[O-].O=C([O-])C(=O)[O-].[Co+3].[K+],GI50,K-562 leukemia,> 100 µM
same,TGI,K-562 leukemia,> 100 µM
same,GI50,DLD-1 colon,> 100 µM
same,TGI,DLD-1 colon,> 100 µM
same,GI50,UACC-62 melanoma,> 100 µM
same,TGI,UACC-62 melanoma,> 100 µM
same,GI50,SNB-19 CNS,> 100 µM
same,TGI,SNB-19 CNS,> 100 µM
same,GI50,DMS 114 small cell lung,> 100 µM
same,TGI,DMS 114 small cell lung,> 100 µM
same,GI50,IGROV1 ovarian,> 100 µM
same,TGI,IGROV1 ovarian,> 100 µM
same,GI50,A549 NSCLC,> 100 µM
same,TGI,A549 NSCLC,> 100 µM
same,GI50,NCI-H522 lung,92.4 µM
same,TGI,NCI-H522 lung,> 100 µM
same,GI50,OVCAR-4 ovarian,> 100 µM
same,TGI,OVCAR-4 ovarian,> 100 µM
same,GI50,MOLT-4 leukemia,> 100 µM
same,TGI,MOLT-4 leukemia,> 100 µM
same,GI50,SK-MEL-28 melanoma,> 100 µM
same,TGI,SK-MEL-28 melanoma,> 100 µM
same,GI50,OVCAR-8 ovarian,> 100 µM
same,TGI,OVCAR-8 ovarian,> 100 µM
same,GI50,CCRF-CEM leukemia,> 100 µM
same,TGI,CCRF-CEM leukemia,> 100 µM
same,GI50,KM12 colon,> 100 µM
same,TGI,KM12 colon,> 100 µM
same,GI50,HCT-116 colon,> 100 µM
same,TGI,HCT-116 colon,> 100 µM
same,GI50,RPMI-8226 leukemia,> 100 µM
same,TGI,RPMI-8226 leukemia,> 100 µM
same,GI50,SN12C renal,> 100 µM
same,TGI,SN12C renal,> 100 µM
same,GI50,TK-10 renal,> 100 µM
same,TGI,TK-10 renal,> 100 µM
same,GI50,OVCAR-5 ovarian,> 100 µM
same,TGI,OVCAR-5 ovarian,> 100 µM
same,GI50,U251 CNS,> 100 µM
same,TGI,U251 CNS,> 100 µM
same,GI50,NCI-H23 lung,> 100 µM
same,TGI,NCI-H23 lung,> 100 µM
same,GI50,SK-MEL-2 melanoma,> 100 µM
same,TGI,SK-MEL-2 melanoma,> 100 µM
same,GI50,SNB-78 CNS,> 100 µM
same,TGI,SNB-78 CNS,> 100 µM
same,GI50,OVCAR-3 ovarian,> 100 µM
same,TGI,OVCAR-3 ovarian,> 100 µM
same,GI50,M19-MEL melanoma,> 100 µM
same,TGI,M19-MEL melanoma,> 100 µM
same,GI50,UACC-257 melanoma,> 100 µM
same,TGI,UACC-257 melanoma,> 100 µM
same,GI50,786-0 renal,> 100 µM
same,TGI,786-0 renal,> 100 µM
same,GI50,ACHN renal,> 100 µM
same,TGI,ACHN renal,> 100 µM
same,GI50,SK-MEL-5 melanoma,> 100 µM
same,TGI,SK-MEL-5 melanoma,> 100 µM
same,GI50,SF-539 CNS,> 100 µM
same,TGI,SF-539 CNS,> 100 µM
same,GI50,HOP-92 NSCLC,> 100 µM
same,TGI,HOP-92 NSCLC,> 100 µM
same,GI50,MALME-3M melanoma,> 100 µM
same,TGI,MALME-3M melanoma,> 100 µM
same,GI50,LOX IMVI melanoma,> 100 µM
same,TGI,LOX IMVI melanoma,> 100 µM
same,GI50,LXFL 529 NSCLC,> 100 µM
same,TGI,LXFL 529 NSCLC,> 100 µM
same,GI50,SK-OV-3 ovarian,> 100 µM
same,TGI,SK-OV-3 ovarian,> 100 µM
same,GI50,EKVX NSCLC,> 100 µM
same,TGI,EKVX NSCLC,> 100 µM
same,GI50,KM20L2 colon,> 100 µM
same,TGI,KM20L2 colon,> 100 µM
same,GI50,HL-60(TB) leukemia,> 100 µM
same,TGI,HL-60(TB) leukemia,> 100 µM
same,GI50,NCI-H460 lung,> 100 µM
same,TGI,NCI-H460 lung,> 100 µM
same,GI50,UO-31 renal,> 100 µM
same,TGI,UO-31 renal,> 100 µM
same,GI50,HT29 colon,> 100 µM
same,TGI,HT29 colon,> 100 µM
same,GI50,SF-295 CNS,> 100 µM
same,TGI,SF-295 CNS,> 100 µM
same,GI50,A498 renal,> 100 µM
same,TGI,A498 renal,> 100 µM
same,GI50,HOP-62 NSCLC,> 100 µM
same,TGI,HOP-62 NSCLC,> 100 µM
same,GI50,M14 melanoma,> 100 µM
same,TGI,M14 melanoma,> 100 µM
same,GI50,SW-620 colon,> 100 µM
same,TGI,SW-620 colon,> 100 µM
same,GI50,HCT-15 colon,> 100 µM
same,TGI,HCT-15 colon,> 100 µM
same,GI50,SF-268 CNS,> 100 µM
same,TGI,SF-268 CNS,> 100 µM
same,GI50,HCC-2998 colon,> 100 µM
same,TGI,HCC-2998 colon,> 100 µM
same,GI50,SNB-75 CNS,> 100 µM
same,TGI,SNB-75 CNS,> 100 µM
same,GI50,COLO 205 colon,> 100 µM
same,TGI,COLO 205 colon,> 100 µM
COc1cc2ccc1NC(=O)N1CCN(CC1)C(=O)Nc1ccc(cc1OC)-c1ccc(c(OC)c1)NC(=O)N1CCN(CC1)C(=O)Nc1ccc-2cc1OC,TGI,K-562 leukemia,> 100 µM
same,TGI,UACC-62 melanoma,> 100 µM
same,TGI,SNB-19 CNS,> 100 µM
same,TGI,DMS 114 small cell lung,> 100 µM
same,TGI,IGROV1 ovarian,> 100 µM
same,TGI,NCI-H522 lung,> 100 µM
same,TGI,OVCAR-4 ovarian,> 100 µM
same,TGI,MOLT-4 leukemia,> 100 µM
same,TGI,SK-MEL-28 melanoma,> 100 µM
same,TGI,CCRF-CEM leukemia,> 100 µM
same,TGI,KM12 colon,> 100 µM
same,TGI,HCT-116 colon,> 100 µM
same,TGI,RPMI-8226 leukemia,> 100 µM
same,TGI,RXF 393 renal,> 100 µM
same,TGI,NCI-H23 lung,> 100 µM
same,TGI,SK-MEL-2 melanoma,> 100 µM
same,TGI,SNB-78 CNS,> 100 µM
same,TGI,OVCAR-3 ovarian,> 100 µM
same,TGI,M19-MEL melanoma,> 100 µM
same,TGI,UACC-257 melanoma,> 100 µM
same,TGI,SR leukemia,> 100 µM
same,TGI,ACHN renal,> 100 µM
same,TGI,SF-539 CNS,> 100 µM
same,TGI,HOP-92 NSCLC,> 100 µM
same,TGI,LXFL 529 NSCLC,> 100 µM
same,TGI,SK-OV-3 ovarian,> 100 µM
same,TGI,NCI-H460 lung,> 100 µM
same,TGI,UO-31 renal,> 100 µM
same,TGI,HT29 colon,> 100 µM
same,TGI,SF-295 CNS,> 100 µM
same,TGI,A498 renal,> 100 µM
same,TGI,HOP-62 NSCLC,> 100 µM
same,TGI,M14 melanoma,> 100 µM
same,TGI,SF-268 CNS,> 100 µM
same,TGI,HCC-2998 colon,> 100 µM
same,TGI,SNB-75 CNS,> 100 µM
same,TGI,COLO 205 colon,> 100 µM
